{"source": "patent US20110162116A1", "about": "“Method For Growing Plants” (priority 2008, published 2011)", "system": "Cotton", "assay": "Total dark respiration and SHAM-sensitive AOX by phase shift fluorescence measurement, cotton leaf sections", "type": "in vivo, Gossypium spp.", "excerpt": "Ozone control. Ozone generators (model OP-35-3P, Grupo Interozone, Brazil) were coupled to ozone monitors (model 202, 2B Technologies, Inc. USA; dynamic range of 1.5 ppbv to 100 ppmv of ozone; precision 1.5 ppbv or 2% of the reading) using a ozone monitor—generator interface (Engineering dep. Crops Advance Brazil). […] This was used as the upper limit for phytotron number one. Phytotron number two was set at 30 ppbv average ozone. Phytotron number three was set at 60 ppbv average ozone. Ozone levels of phytotron number two and three were permanently measured at 10 second intervals and averaged per minute. Each ozone monitor fed averaged values over an analog output to an ozone monitor—ozone generator interface. Hysteresis was set at +/−5 ppbv. Ozone levels were monitored close to the inlet of the two internal circulation ventilators. The ozone generators were adapted to accept an external digital signal from the interface.\nRespiration of plant material was tested as follows: Partial oxygen pressure drops due to oxygen consumption as result of dark respiration were measured using phase shift fluorescence measurement. For this, a NeoFox™ Phase Measurement System was used (Fluorometer Bench version using a QBIF600-VIS-NIR laboratory-grade bifurcated optical fiber with FOXY-R-8 cm overcoated fluorescence oxygen needle sensor, Ocean Optics Inc. USA).\nFluorescence phase shift was expressed as Tau in microseconds (μs) and has an inverse and linear relation with the partial oxygen pressure.\nSalicylhydroxamic acid (SHAM) (99%, Sigma-Aldrich Brasil Ltda. São Paulo, Brazil) was used as an AOX inhibitor. The soluble sodium salicylhydroxamate salt was prepared by titrating SHAM with 0.1 M sodium hydroxide until neural pH. A stock solution ([…]) was prepared containing 300 ml/L ethanol from initial dissolving SHAM (same abbreviation is used for the salicylhydroxamate salt). From the stock solution a 20 mmol/L salicylhydroxamate final test solution was prepared by taking 12.3 ml stock solution and completing till 100 ml with a phosphate buffer solution (pH 7). The final SHAM test solution thus contained 3.7% residual ethanol. For proper control, the comparative test solution was also provided with 3.7 ml of ethanol per 100 ml of phosphate buffer solution (pH 7). To both solutions two drops of wetting agent (Silwet L-77 AG, GE Silicones Inc. USA) were added per 25 ml of test solution.\nPlant material collected was always the first fully grown leaf counting from the apical point downwards or outwards (e.g. for monocotyls). […] Per test, four leafs from four different plants were sampled. Cotton leafs were cut in half along the mid nerve. Using a clipper, 16 leaf sections of equal surface area of 400.9 mm2 each were cut, one from each base half and one from each top half part giving 4 sections per leaf and 16 sections per test. The leaf sections were distributed equally over two sub samples, one with and one without salicylhydroxamate. Using a chirurgical blade, all sections were given 7 parallel cuts (through and through) at approximately 2.5 mm apart over almost the full length of the section to guarantee lateral infiltration of the test solutions and gas exchange.\nWithin 10 minutes of plant sampling the sections were cut, initial subsample weight was registered using a high precision laboratory scale and the subsamples were placed in their solutions with and without salicylhydroxamate for 60 minutes in the dark, to guarantee dark adaptation.\nEach sample contained 4 leaves, 4 sections per leaf providing 16 sections, 8 per subsample. In 1 subsample of 8 sections AOX was inhibited, the other subsample served as control. Thereafter each subsample material was tissue dried and stacked using filter paper sections cut with the same clipper to separate individual leaf sections. Each subsample consisted of 9 filter sections and 8 leaf sections. […]", "key": {"[1]": {"settings": "plants grown in 0 ppvb O3, transferred to 60 ppvb O3 and transferred back to 0 ppvb O3"}, "[2]": {"settings": "plants grown in 0 ppvb O3 and transferred to 30 ppvb O3"}, "[3]": {"settings": "plants grown in 0 ppvb O3 and transferred to 60 ppvb O3"}, "[4]": {"settings": "plants grown in 60 ppvb O3 and transferred to 0 ppvb O3"}}}
{"smiles": "O=[O+][O-]", "note": "[ozone]", "values": [{"measurement": "time for AOX respiration rate to fully return to base level when the oxidative stress is reduced", "setting": "cotton, after exposure to higher ozone levels than in ontogenic phase", "result": "≤ 3", "unit": "days"}, {"measurement": "AOX respiration after return to the 0 ppbv ozone ambient (in words)", "setting": "ontogenic phase in 0 ppbv, time in 60 ppbv ozone ambient, returned to 0 ppbv", "result": "returned fully to its initial level"}, {"measurement": "AOX component", "setting": "[1]", "result": 2.95, "unit": "arb units"}, {"measurement": "TDR excl AOX dTau/t without SHAM", "setting": "[1]", "result": "8.87E−06", "unit": "μs/s"}, {"measurement": "TDR incl AOX dTau/t with SHAM", "setting": "[1]", "result": "1.18E−05", "unit": "μs/s"}, {"measurement": "AOX component", "setting": "[2]", "result": 3.26, "unit": "arb units"}, {"measurement": "TDR excl AOX dTau/t without SHAM", "setting": "[2]", "result": "7.51E−06", "unit": "μs/s"}, {"measurement": "TDR incl AOX dTau/t with SHAM", "setting": "[2]", "result": "1.08E−05", "unit": "μs/s"}, {"measurement": "AOX component", "setting": "[3]", "result": 3.77, "unit": "arb units"}, {"measurement": "TDR excl AOX dTau/t without SHAM", "setting": "[3]", "result": "5.75E−06", "unit": "μs/s"}, {"measurement": "TDR incl AOX dTau/t with SHAM", "setting": "[3]", "result": "9.52E−06", "unit": "μs/s"}, {"measurement": "AOX component", "setting": "plants grown in 30 ppvb O3", "result": 2.97, "unit": "arb units"}, {"measurement": "TDR excl AOX dTau/t without SHAM", "setting": "plants grown in 30 ppvb O3", "result": "6.96E−06", "unit": "μs/s"}, {"measurement": "TDR incl AOX dTau/t with SHAM", "setting": "plants grown in 30 ppvb O3", "result": "9.93E−06", "unit": "μs/s"}, {"measurement": "AOX component", "setting": "plants grown in 60 ppvb O3", "result": 3.33, "unit": "arb units"}, {"measurement": "TDR excl AOX dTau/t without SHAM", "setting": "plants grown in 60 ppvb O3", "result": "6.03E−06", "unit": "μs/s"}, {"measurement": "TDR incl AOX dTau/t with SHAM", "setting": "plants grown in 60 ppvb O3", "result": "9.36E−06", "unit": "μs/s"}, {"measurement": "AOX component", "setting": "[4]", "result": 3.97, "unit": "arb units"}, {"measurement": "TDR excl AOX dTau/t without SHAM", "setting": "[4]", "result": "7.13E−06", "unit": "μs/s"}, {"measurement": "TDR incl AOX dTau/t with SHAM", "setting": "[4]", "result": "1.11E−05", "unit": "μs/s"}, {"measurement": "AOX respiration during stay in the zero ozone level ambient (in words)", "setting": "plants grown up in 60 ppbv ozone, placed in zero ozone ambient", "result": "did not lower their AOX respiration"}]}
